The test system of the assay is ZIKV. Briefly: ZIKV reporter virus-based antiviral screening on Huh7 cells. Type of assay: cell-based, Zika virus. To be noted: Huh7 cells infected with recombinant luciferase reporter ZIKV (MOI about 0.1), luciferase signal. The text has this: Protocol for ZIKV reporter virus-based antiviral screening on Huh7 cells:
• Human hepatocyte-derived carcinoma cell line (Huh7) 2. Reagents • ViviRen™ Live Cell Substrate (Promega, Cat #E6492) or Nano Glo assay system (Promega: N1130) • White opaque 96-well TC-treated microplates (Corning, Cat #3916) • 96-well Clear V-Bottom TC-treated Microplate (Corning, Cat #3894) • Complete cell culture media: DMEM (Gibco, Cat #10569) supplemented with 10% FBS (HyClone, Cat #SH30071.03IH25-40)+1% MEM Non-Essential Amino Acids Solution 100×(Gibco, Cat #11140050)+1% Penicillin-Streptomycin (10,000 U/mL) (Gibco, Cat #15140122). • Assay media: DMEM media (Gibco, Cat #31053028) supplemented with 2% FBS, 2% GlutaMAX™ Supplement (Gibco Cat #35050061), 1% Sodium Pyruvate solution (Gibco, Cat #11360070), 1% MEM Non-Essential Amino Acids Solution 100× and 1% Penicillin-Streptomycin (10,000 U/mL). • Trypsin-EDTA solution (Gibco, Cat #25200056) 3. Virus • Recombinant ZIKV strain with Renilla luciferase gene (strain FSS-Rlu) or Nano luciferase gene (Strain PRV-Nano, Dakar-Nano) 4. Instruments • BioTek Cytation 5 or other plate-readers for chemiluminescence detection model. • Eppendorf plate centrifuge • Plate shaker • Eppendorf multichannel pipettes Procedures Day 1: Preparation of Cells • Human hepatocyte-derived carcinoma cell line (Huh7) cells were detached from a T-175 flask by using a Trypsin-EDTA solution. The detached cells were suspended in complete culture media in a sterile 50-ml conical tube. • The 50-ml conical tube was centrifuged at 1200×rpm for 3 min at room temperature. • The cells were resuspended in assay media. The cell numbers were counted, and the cells diluted to a density of 3×10^5 cells/ml. • The cells were plated at 50 μl cells per well in White opaque 96-well plates (assay plates). Gently shake the plates to ensure cells to attach to the plate evenly. • The plated cells were incubated in a humidified incubator (37° C. with 5% CO2). Day 2: Infection • 1) Nine serial (2-fold or 3-fold) concentrated compounds were prepared using 90% DMSO solution and DMSO controls in a clear V-bottom 96-well plate (compound plate). • For example:
• 2) The reporter virus stock was diluted to a concentration of 3×10^4 FFU (FFU: focus-forming unit)/ml using the assay media. 200 μl diluted virus per well was aliquoted into a clear V-bottom 96-well plate (mixing plate). • 3) 1 μl above 400×concentrated compound dilutions was added from the compound plate to each well of the mixing plate. The plates were shaken on a plate shaker for 5 min. • 4) 50 μl compound-virus mixture was added into each well of the assay plates (the MOI is about 0.1). The plates were shaken gently by mixing the virus evenly. • An example of the format for assay plate:
• control. • 5) The plates were centrifuged at 1000 rpm for 15 s. • 6) The plates were incubated at 37° C. with 5% CO2 in a humidified incubator for 48 hrs. Day 4: Read Luciferase Signals • 7) The ViviRen™ Live Cell Substrate was diluted in assay media for 3000× folds. 25 μl of diluted substrates was added into each well of the assay plates. • For Nano-Glo assay system, 50 μl diluted substrates (50×fold diluted from the stock in assay buffer) were added. • 8) The plates were incubated at room temperature for 5 min. • 9) Optimally, cell viability is measured using the Promega Cell-titer Glo kit (only used when ZIKV-Rlu was used for infection). • 10) Luciferase signals were read using the Cytation 5 with gain value of 120-150. Data Analysis • a. The luciferase signals from DMSO-treated groups (un-treated controls) were set as 100%. The relative luciferase signals were obtained by normalizing the luciferase signals from each dilution-treated group to that of the controls. • b.

Like-named read-outs stand apart in the source and are kept apart here. A value given as a limit tells only on which side of the number the result lay.

With `COC(=O)N[C@H](C(=O)N1C[C@@H](OC)C[C@H]1c1nc(Cl)c(-c2cc3c4c(c2)OCc2cc(-c5[nH]c([C@@H]6C[C@H](OC)CN6C(=O)[C@@H](NC(=O)OC)C(C)(C)C(F)(F)F)nc5Cl)cc(c2-4)OC3)[nH]1)C(C)(C)C(F)(F)F` [Compound 6, dimethyl ((2S,2′S)-((3S,3′S,5S,5′S)-((5,10-dihydrochromeno[5,4,3-cde]chromene-2,7-diyl)bis(4-chloro-1H-imidazole-5,2-diyl))bis(3-methoxypyrrolidine-5,1-diyl))bis(4,4,4-trifluoro-3,3-dimethyl-1-oxobutane-1,2-diyl))dicarbamate], the EC50 (Zika virus, Huh-7, 48 h) was 4.9 nM.
As to `COC(=O)N[C@H](C(=O)N1CCC[C@H]1c1nc(C(C)C)c(-c2cc3c4c(c2)OCc2cc(-c5[nH]c([C@@H]6CCCN6C(=O)[C@@H](NC(=O)OC)C(C)C)nc5C(C)C)cc(c2-4)OC3)[nH]1)C(C)C` [Compound 19, dimethyl ((2S,2′S)-((2S,2′S)-((5,10-dihydrochromeno[5,4,3-cde]chromene-2,7-diyl)bis(4-isopropyl-1H-imidazole-5,2-diyl))bis(pyrrolidine-2,1-diyl))bis(3-methyl-1-oxobutane-1,2-diyl))dicarbamate], the EC50 (Zika virus, Huh-7, 48 h) turned out to be 15.8 nM.
Turning to “methyl ((S)-1-((S)-2-(5-(7-(4-chloro-2-((S)-1-((methoxycarbonyl)-L-valyl)pyrrolidin-2-yl)-1H-imidazol-5-yl)-5,10-dihydrochromeno[5,4,3-cde]chromen-2-yl)-4-isopropyl-1H-imidazol-2-yl)pyrrolidin-1-yl)-3-methyl-1-oxobutan-2-yl)carbamate [Compound 77]”, where the note is “48 hrs, read-out: EC50”, the EC50 came out at 13.6 nM.
Consider `CC[C@H](C)[C@H](NC(=O)OC)C(=O)N1C[C@@H](C)C[C@H]1c1nc(Cl)c(-c2cc3c4c(c2)OCc2cc(-c5[nH]c([C@@H]6C[C@H](C)CN6C(=O)[C@@H](NC(=O)OC)[C@@H](C)CC)nc5C(C)C)cc(c2-4)OC3)[nH]1` [Compound 73, methyl ((2S,3S)-1-((2S,4S)-2-(5-(7-(4-chloro-2-((2S,4S)-1-((methoxycarbonyl)-1-isoleucyl)-4-methylpyrrolidin-2-yl)-1H-imidazol-5-yl)-5,10-dihydrochromeno[5,4,3-cde]chromen-2-yl)-4-isopropyl-1H-imidazol-2-yl)-4-methylpyrrolidin-1-yl)-3-methyl-1-oxopentan-2-yl)carbamate], for which the EC50 (48 hrs, read-out: EC50) was determined as 3.2 nM.
In the case of `COC(=O)N[C@H](C(=O)N1[C@H](C)CC[C@H]1c1nc(Cl)c(-c2cc3c4c(c2)OCc2cc(-c5[nH]c([C@@H]6CC[C@@H](C)N6C(=O)[C@@H](NC(=O)OC)C(C)(C)C(F)(F)F)nc5Cl)cc(c2-4)OC3)[nH]1)C(C)(C)C(F)(F)F` [Compound 65, dimethyl ((2S,2′S)-((2R,2′R,5S,5′S)-((5,10-dihydrochromeno[5,4,3-cde]chromene-2,7-diyl)bis(4-chloro-1H-imidazole-5,2-diyl))bis(2-methylpyrrolidine-5,1-diyl))bis(4,4,4-trifluoro-3,3-dimethyl-1-oxobutane-1,2-diyl))dicarbamate], the EC50 (Zika virus, Huh-7, 48 h) is 71.7 nM.
With `CC[C@H](C)[C@H](NC(=O)OC)C(=O)N1CCC[C@H]1c1ncc(-c2cc3c4c(c2)OCc2cc(-c5[nH]c([C@@H]6CCCN6C(=O)[C@@H](NC(=O)OC)[C@@H](C)CC)nc5Cl)cc(c2-4)OC3)[nH]1` [Compound 22, methyl ((2S,3S)-1-((S)-2-(5-(7-(4-chloro-2-((S)-1-((methoxycarbonyl)-L-isoleucyl)pyrrolidin-2-yl)-1H-imidazol-5-yl)-5,10-dihydrochromeno[5,4,3-cde]chromen-2-yl)-1H-imidazol-2-yl)pyrrolidin-1-yl)-3-methyl-1-oxopentan-2-yl)carbamate], the EC50 (Zika virus, Huh-7, 48 h) was 14.1 nM.
Still for that read-out and setting: the same measure for `CC[C@H](C)[C@H](NC(=O)OC)C(=O)N1CC(C)(C)C[C@H]1c1nc(Cl)c(-c2cc3c4c(c2)OCc2cc(-c5[nH]c([C@@H]6CC(C)(C)CN6C(=O)[C@@H](NC(=O)OC)[C@@H](C)CC)nc5Cl)cc(c2-4)OC3)[nH]1` [Compound 8, dimethyl ((2S,2′S,3S,3′S)-((5S,5′S)-((5,10-dihydrochromeno[5,4,3-cde]chromene-2,7-diyl)bis(4-chloro-1H-imidazole-5,2-diyl))bis(3,3-dimethylpyrrolidine-5,1-diyl))bis(3-methyl-1-oxopentane-1,2-diyl))dicarbamate]: 4.4 nM.
Same read-out and setting: the same measure for `COC(=O)N[C@H](C(=O)N1CC(C)(C)C[C@H]1c1nc(Cl)c(-c2cc3c4c(c2)OCc2cc(-c5[nH]c([C@@H]6CC(C)(C)CN6C(=O)[C@@H](NC(=O)OC)C(C)C)nc5Cl)cc(c2-4)OC3)[nH]1)C(C)C` [Compound 7, dimethyl ((2S,2′S)-((5S,5′S)-((5,10-dihydrochromeno[5,4,3-cde]chromene-2,7-diyl)bis(4-chloro-1H-imidazole-5,2-diyl))bis(3,3-dimethylpyrrolidine-5,1-diyl))bis(3-methyl-1-oxobutane-1,2-diyl))dicarbamate]: 4.2 nM.
As for `CC[C@H](C)[C@H](NC(=O)OC)C(=O)N1CCCC[C@H]1c1nc(Cl)c(-c2cc3c4c(c2)OCc2cc(-c5[nH]c([C@@H]6CCCCN6C(=O)[C@@H](NC(=O)OC)[C@@H](C)CC)nc5Cl)cc(c2-4)OC3)[nH]1` [Compound 14, dimethyl ((2S,2′S,3S,3′S)-((2S,2′S)-((5,10-dihydrochromeno[5,4,3-cde]chromene-2,7-diyl)bis(4-chloro-1H-imidazole-5,2-diyl))bis(piperidine-2,1-diyl))bis(3-methyl-1-oxopentane-1,2-diyl))dicarbamate], the EC50 (Zika virus, Huh-7, 48 h) stood at 4.6 nM.
The same measure, in the same setting: the same measure for `CC[C@H](C)[C@H](NC(=O)OC)C(=O)N1CC2(CC2)C[C@@H]1c1nc(Cl)c(-c2cc3c4c(c2)OCc2cc(-c5[nH]c([C@H]6CC7(CC7)CN6C(=O)[C@@H](NC(=O)OC)[C@@H](C)CC)nc5C(C)C)cc(c2-4)OC3)[nH]1` [Compound 78, methyl ((2S,3S)-1-((R)-6-(5-(7-(4-chloro-2-((R)-5-((methoxycarbonyl)-L-isoleucyl)-5-azaspiro[2.4]heptan-6-yl)-1H-imidazol-5-yl)-5,10-dihydrochromeno[5,4,3-cde]chromen-2-yl)-4-isopropyl-1H-imidazol-2-yl)-5-azaspiro[2.4]heptan-5-yl)-3-methyl-1-oxopentan-2-yl)carbamate]: over 1000 nM; for `CC[C@H](C)[C@H](NC(=O)OC)C(=O)N1CCC[C@H]1c1nc(Br)c(-c2cc3c4c(c2)OCc2cc(-c5[nH]c([C@@H]6CCCN6C(=O)[C@@H](NC(=O)OC)[C@@H](C)CC)nc5Br)cc(c2-4)OC3)[nH]1` [Compound 24, dimethyl ((2S,2′S,3S,3′S)-((2S,2′S)-((5,10-dihydrochromeno[5,4,3-cde]chromene-2,7-diyl)bis(4-bromo-1H-imidazole-5,2-diyl))bis(pyrrolidine-2,1-diyl))bis(3-methyl-1-oxopentane-1,2-diyl))dicarbamate]: 2.2 nM; for `CC[C@@H](C)[C@H](NC(=O)OC)C(=O)N1CCC[C@H]1c1nc(Cl)c(-c2cc3c4c(c2)OCc2cc(-c5[nH]c([C@@H]6CCCN6C(=O)[C@@H](NC(=O)OC)[C@H](C)CC)nc5Cl)cc(c2-4)OC3)[nH]1` [Compound 32, dimethyl ((2S,2′S,3R,3′R)-((2S,2′S)-((5,10-dihydrochromeno[5,4,3-cde]chromene-2,7-diyl)bis(4-chloro-1H-imidazole-5,2-diyl))bis(pyrrolidine-2,1-diyl))bis(3-methyl-1-oxopentane-1,2-diyl))dicarbamate]: 1.1 nM.

The record behind these values is patent US12497408B2, “Tetracyclic compounds and methods for the treatment of Zika virus infection” (priority 2021, dated 2025).
